Legend:
[1] = tested on: green peach aphid (Myzus persicae); assay: Myzus persicae test (Example A1, cabbage leaves sprayed); type: in vivo; conditions: spray
[2] = tested on: army worm larvae (Spodoptera frugiperda); assay: Spodoptera frugiperda larvae test (Example C, cabbage leaves sprayed); type: in vivo; conditions: spray
[3] = tested on: mustard beetle larvae (Phaedon cochleariae); assay: Phaedon cochleariae larvae test (Example B, cabbage leaves sprayed); conditions: 100 g/ha, spray
[4] = tested on: green peach aphid (Myzus persicae); assay: Myzus persicae test (Example A2, cabbage leaves dipped); type: in vivo; conditions: dipping
Description: Cabbage leaves (Brassica oleracea) which are severely infested with the green peach aphid (Myzus persicae) are treated by dipping into the active substance preparation of the desired concentration.

O=C1C=C(N(CCF)Cc2ccc(Cl)nc2)CO1 [Compound I-4, 4-{[(6-chloropyrid-3-yl)methyl](2-fluoroethyl)amino}furan-2(5H)-one]
Destruction in % after 1 day ([1]; 4 g/ha): 30% | Destruction in % after 6 days ([2]; 4 g/ha): 0% | Destruction in % after 2 days [3]: 0%

Cc1cc(C(F)(C(F)(F)F)C(F)(F)F)ccc1NC(=O)c1cccc(Cl)c1C(=O)N[C@@H](C)CS(C)(=O)=O [Compound IIb, (S)-3-chloro-N^1-{2-methyl-4-[1,2,2,2-tetrafluoro-1-(trifluoromethyl)ethyl]phenyl}-N^2-(1-methyl-2-methylsulphonylethyl)phthalamide]
Destruction in % after 1 day ([1]; 0.8 g/ha): 0% | Destruction in % after 1 day ([4]; 100 ppm): 10% | Destruction in % after 6 days ([2]; 0.16 g/ha): 0% | Destruction in % after 6 days ([2]; 0.8 g/ha): 67%

CN(Cc1cnc(Cl)c(F)c1)C1=CC(=O)OC1 [Compound I-6, 4-{[(6-chloro-5-fluoropyrid-3-yl)methyl](methyl)amino}furan-2(5H)-one]
Destruction in % after 1 day ([1]; 0.16 g/ha): 30% | Destruction in % after 6 days ([2]; 4 g/ha): 0% | Destruction in % after 2 days [3]: 0%

O=C1C=C(N(Cc2ccc(Cl)nc2)CC(F)F)CO1 [Compound I-5, 4-{[(6-chloropyrid-3-yl)methyl](2,2-difluoroethyl)amino}furan-2(5H)-one]
Destruction in % after 6 days ([2]; 0.8 g/ha): 0%

CN(Cc1ccc(Cl)nc1)C1=CC(=O)OC1 [Compound I-10, 4-{[(6-chloropyrid-3-yl)methyl](methyl)amino}furan-2(5H)-one]
Destruction in % after 1 day ([4]; 0.8 ppm): 45%

Cc1cc(C(F)(C(F)(F)F)C(F)(F)F)ccc1NC(=O)c1cccc(I)c1C(=O)NC(C)(C)CS(C)(=O)=O [Flubendiamide, flubendiamide, reference compound]
Destruction in % after 1 day ([1]; 0.16 g/ha): 0% | Destruction in % after 6 days ([2]; 0.8 g/ha): 33% | Destruction in % after 6 days ([2]; 4 g/ha): 67% | Destruction in % after 2 days [3]: 17%
